Data as given in US20250154169A1, “COMPOUNDS AND METHODS FOR MODULATING SPLICING” (REMIX THERAPEUTICS INC., priority 2021, published 2025).
pIC50: −log10 of the molar value. Like-named read-outs stand apart in the source and are kept apart here.

Tests used:
HTT = experiment: Protein abundance, HiBit-assay system (Promega), HTT; assay type: cell-based; settings: Table 6; HiBiT-modified K562 cells, 24 hours
Description: (§1) In some embodiments, a compound of Formula (I) or (II) or a pharmaceutically acceptable salt thereof, e.g., as described herein, modulates the expression of a target protein (e.g., HTT or MYB) in a reference cell or sample. In an embodiment, a compound of Formula (I) or (II) or a pharmaceutically acceptable salt thereof, e.g., as described herein, increases the expression of a target protein (e.g., HTT or MYB) in a reference cell or sample. In an embodiment, a compound of Formula (I) or (II) or a pharmaceutically acceptable salt thereof, e.g., as described herein, decreases the expression of a target protein (e.g., HTT or MYB) in a reference cell or sample. The effect of an exemplary compound of Formula (I) or (II) on protein abundance may be measured using a standard assay for measuring protein abundance, such as the HiBit-assay system (Promega). In this assay, percent response for each respective cell line may be as calculated at each compound concentration as follows: % response=100*(S−PC)/(NC−PC). For the normalized response at each concentration, a four-parameter logistical regression may be fit to the data and the response may be interpolated at the 50% value to determine a concentration for protein abundance at 50% (IC50) an untreated control. In an embodiment, a compound of Formula (I) or (II) or a pharmaceutically acceptable salt thereof, e.g., as described herein, has a protein abundance response less than 100 nM. In an embodiment, a compound of Formula (I) or (II) or a pharmaceutically acceptable salt thereof, e.g., as described herein, has a protein abundance response between 100-1000 nM. In an embodiment, a compound of Formula (I) or (II) or a pharmaceutically acceptable salt thereof, e.g., as described herein, has a protein abundance response greater than 1000 nM. In an embodiment, a compound of Formula (I) or (II) or a pharmaceutically acceptable salt thereof, e.g., as described herein, has a protein abundance response greater than 10 uM. In an embodiment, a compound of Formula (I) or (II) or a pharmaceutically acceptable salt thereof, e.g., as described herein, modulates the protein abundance of a target protein by about 1%, 5%, 10%, 15%, 20%, 25%, 30%, 35%, 40%, 45%, 50%, 55%, 60%, 65%, 70%, 75%, 80%, 85%, 90%, 95%, 99% or more, e.g., compared with a reference compound.

MYB = experiment: Protein abundance, HiBit-assay system (Promega), MYB; assay type: cell-based; settings: Table 6; HiBiT-modified K562 cells, 24 hours
Description: as §1

HTT mRNA = experiment: Splicing RT-qPCR assay, HTT canonical (CJ) and alternative (AJ) junction mRNA; assay type: cell-based, human; settings: Homo sapiens, A673 or K562 cells, 24 hours compound treatment; for AC50: read-out: HTT AJ (AC50, increase in alternative junction mRNA); for pIC50: read-out: HTT CJ (IC50, decrease in canonical junction mRNA)
Method in brief: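 Canonical (CJ) and alternative-exon (AJ) junction mRNAs quantified by one-step RT-qPCR in cell lysates, normalized to housekeeping PPIA for A673 and GAPDH or GUSB for K562. Cells were exposed 24 h at 37 °C to 11-point 3-fold compound series from 10 uM final, with DMSO at or below 0.25%.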

Row | SMILES | pIC50 (HTT) | pIC50 (MYB) | pIC50 (HTT mRNA; 24 h) | AC50 (HTT mRNA) | pIC50 (HTT mRNA)
1 | Cc1cn2cc(NC(=O)c3ccc(N4CC5NC5C4)c4cn(C)nc34)cc(F)c2n1 (stereo not drawn) [Compound 563, 4-{3,6-diazabicyclo[3.1.0]hexan-3-yl}-N-{8-fluoro-2-methylimidazo[1,2-a]pyridin-6-yl}-2-methylindazole-7-carboxamide] | 6.00 to 7.00 | > 7.00 |  | 0.1 to 1 µM | 6.00 to 7.00
2 | Cc1cn2nc(NC(=O)c3ccc(C4CCNCC4)c4ccoc34)cc(C)c2n1 [Compound 119] | 5.00 to 6.00 | 5.00 to 6.00 | 5.00 to 6.00 | > 10 µM | 
3 | Cc1cn2cc(NC(=O)c3ccc(N4C5CNCC54)c4cn(C)nc34)cc(F)c2n1 (stereo not drawn) [Compound 564, 4-{3,6-diazabicyclo[3.1.0]hexan-6-yl}-N-{8-fluoro-2-methylimidazo[1,2-a]pyridin-6-yl}-2-methylindazole-7-carboxamide] | 6.00 to 7.00 | 6.00 to 7.00 |  | 0.1 to 1 µM | 6.00 to 7.00
4 | Cc1cn2cc(NC(=O)c3ccc(N4CCNCC4)c4oc(C)nc34)cc(F)c2n1 [Compound 141] | 6.00 to 7.00 | 6.00 to 7.00 | > 7.00 | < 0.1 µM | 

The next lines start with results.

Row | pIC50 (HTT) | pIC50 (MYB) | pIC50 (HTT mRNA; 24 h) | SMILES | AC50 (HTT mRNA) | pIC50 (HTT mRNA)
5 | 5.00 to 6.00 | > 7.00 | 5.00 to 6.00 | Cc1cn2cc(NC(=O)c3ccc(C4CCNCC4)c4cc(C)oc34)cc(F)c2n1 [Compound 145] | 1 to 10 µM | 
6 | 5.00 to 6.00 | > 7.00 | < 5.00 | CCn1cc2c(N3CCC(NC4CC4)C3)cc(F)c(C(=O)Nc3cc(F)c4nc(C)cn4c3)c2n1 (stereo not drawn) [Compound 569, 4-[3-(cyclopropylamino)pyrrolidin-1-yl]-2-ethyl-6-fluoro-N-{8-fluoro-2-methylimidazo[1,2-a]pyridin-6-yl}indazole-7-carboxamide] | 1 to 10 µM | 
7 | < 5.00 | 5.00 to 6.00 | < 5.00 | Cc1cn2cc(NC(=O)c3ccc(N4CCC(NC(C)(C)C)CC4)c4cc(C)oc34)cc(F)c2n1 [Compound 197] | > 10 µM | 
8 | < 5.00 | 6.00 to 7.00 | 5.00 to 6.00 | Cc1cn2cc(NC(=O)c3ccc(N4CCN(C)CC4)c4cc(C)oc34)cc(F)c2n1 [Compound 189] | 1 to 10 µM | 
9 | 5.00 to 6.00 | 6.00 to 7.00 | 5.00 to 6.00 | CCC1CN(c2ccc(C(=O)Nc3cc(F)c4nc(C)cn4c3)c3oc(C)cc23)CCN1 (stereo not drawn) [Compound 192] | 1 to 10 µM | 
